Assays:
CYP2D6 = CYP2D6 (Homo sapiens, UniProt P10635); test: metabolism in vitro; type: in vitro ADME
lung function = test: Example 1: percent predicted TLC change from baseline; type: in vivo, human; settings: mean (SD)
Procedure: Change From Baseline in Percent Predicted Total Lung Capacity (TLC) at Each Specified Time Points. TLC is the volume of air in the lungs upon the maximum effort of inspiration. Baseline value was defined as valid and last non-missing value obtained within 28 days prior to participant receiving first study medication. EOT visit was performed within 3 days after the participant's last dose of study drug. […] Analysis was performed on mITT population. Here, ‘number analyzed’=participants with available data for each specified category. Here, ‘0’ in the number analyzed field signifies that none of the participants were available for the analysis at the specified time points.

CYP2D6, sequence (P10635 whole entry): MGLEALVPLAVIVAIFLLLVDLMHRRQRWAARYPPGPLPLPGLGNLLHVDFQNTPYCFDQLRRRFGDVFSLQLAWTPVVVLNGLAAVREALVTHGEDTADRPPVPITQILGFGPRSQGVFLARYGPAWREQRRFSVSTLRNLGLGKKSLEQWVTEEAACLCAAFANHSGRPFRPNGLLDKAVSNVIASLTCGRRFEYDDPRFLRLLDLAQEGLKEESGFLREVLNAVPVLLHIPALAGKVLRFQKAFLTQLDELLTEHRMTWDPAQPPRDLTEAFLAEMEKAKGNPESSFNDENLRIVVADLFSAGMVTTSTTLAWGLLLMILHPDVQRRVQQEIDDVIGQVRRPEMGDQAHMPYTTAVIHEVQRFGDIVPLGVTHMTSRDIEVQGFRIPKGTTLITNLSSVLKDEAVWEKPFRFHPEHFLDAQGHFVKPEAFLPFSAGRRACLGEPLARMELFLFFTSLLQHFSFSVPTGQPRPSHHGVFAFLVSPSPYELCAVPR

CC(C)NC(=O)COc1cccc(-c2nc(Nc3ccc4[nH]ncc4c3)c3ccccc3n2)c1 [Belumosudil, 2-{3-[4-(1H-indazol-5-ylamino)-2-quinazolinyl]phenoxy}-N-(propan-2-yl) acetamide] was tested, and the “metabolism by CYP2D6” value (CYP2D6) was “to a lesser extent”, the “Change From Baseline in Percent Predicted Total Lung Capacity (TLC)” value (lung function; Cohort 1: 200 mg QD, Cycle 3, Day 1) was 1.6 (11.9) Percent Predicted TLC and the “Change From Baseline in Percent Predicted Total Lung Capacity (TLC)” value (lung function; Cohort 1: 200 mg QD, Cycle 5, Day 1) was −2.6 (16.8) Percent Predicted TLC. The “Change From Baseline in Percent Predicted Total Lung Capacity (TLC)” value (lung function; Cohort 1: 200 mg QD, Cycle 7, Day 1) was −3.7 (6.6) Percent Predicted TLC, the “Change From Baseline in Percent Predicted Total Lung Capacity (TLC)” value (lung function; Cohort 1: 200 mg QD, Cycle 9, Day 1) was −2.9 (6.1) Percent Predicted TLC and the “Change From Baseline in Percent Predicted Total Lung Capacity (TLC)” value (lung function; Cohort 1: 200 mg QD, Cycle 11, Day 1) was 0.7 (4.3) Percent Predicted TLC. For the same molecule, the “Change From Baseline in Percent Predicted Total Lung Capacity (TLC)” value (lung function; Cohort 1: 200 mg QD, Cycle 12, Day 1) was −9.0 (—) Percent Predicted TLC, the “Change From Baseline in Percent Predicted Total Lung Capacity (TLC)” value (lung function; Cohort 1: 200 mg QD, Cycle 13, Day 1) was −0.3 (7.1) Percent Predicted TLC and the “Change From Baseline in Percent Predicted Total Lung Capacity (TLC)” value (lung function; Cohort 1: 200 mg QD, Cycle 14, Day 1) was 23.0 (—) Percent Predicted TLC. The “Change From Baseline in Percent Predicted Total Lung Capacity (TLC)” value (lung function; Cohort 1: 200 mg QD, Cycle 15, Day 1) was −2.8 (10.8) Percent Predicted TLC, the “Change From Baseline in Percent Predicted Total Lung Capacity (TLC)” value (lung function; Cohort 1: 200 mg QD, Cycle 16, Day 1) was −3.0 (—) Percent Predicted TLC and the “Change From Baseline in Percent Predicted Total Lung Capacity (TLC)” value (lung function; Cohort 1: 200 mg QD, Cycle 17, Day 1) was −3.0 (6.2) Percent Predicted TLC. For the same molecule, the “Change From Baseline in Percent Predicted Total Lung Capacity (TLC)” value (lung function; Cohort 1: 200 mg QD, Cycle 19, Day 1) was −4.6 (6.1) Percent Predicted TLC, the “Change From Baseline in Percent Predicted Total Lung Capacity (TLC)” value (lung function; Cohort 1: 200 mg QD, Cycle 21, Day 1) was 0.3 (9.3) Percent Predicted TLC and the “Change From Baseline in Percent Predicted Total Lung Capacity (TLC)” value (lung function; Cohort 1: 200 mg QD, Cycle 23, Day 1) was 0.0 (8.7) Percent Predicted TLC. For the same molecule, the “Change From Baseline in Percent Predicted Total Lung Capacity (TLC)” value (lung function; Cohort 1: 200 mg QD, Cycle 24, Day 1) was 0.0 (—) Percent Predicted TLC, the “Change From Baseline in Percent Predicted Total Lung Capacity (TLC)” value (lung function; Cohort 1: 200 mg QD, Cycle 25, Day 1) was −3.0 (7.1) Percent Predicted TLC and the “Change From Baseline in Percent Predicted Total Lung Capacity (TLC)” value (lung function; Cohort 1: 200 mg QD, Cycle 26, Day 1) was 0.0 (—) Percent Predicted TLC. The “Change From Baseline in Percent Predicted Total Lung Capacity (TLC)” value (lung function; Cohort 1: 200 mg QD, Cycle 27, Day 1) was 5.5 (16.3) Percent Predicted TLC, the “Change From Baseline in Percent Predicted Total Lung Capacity (TLC)” value (lung function; Cohort 1: 200 mg QD, Cycle 29, Day 1) was −1.0 (17.0) Percent Predicted TLC and the “Change From Baseline in Percent Predicted Total Lung Capacity (TLC)” value (lung function; Cohort 1: 200 mg QD, Cycle 30, Day 1) was 7.0 (—) Percent Predicted TLC. The “Change From Baseline in Percent Predicted Total Lung Capacity (TLC)” value (lung function; Cohort 1: 200 mg QD, Cycle 31, Day 1) was 7.5 (17.7) Percent Predicted TLC, the “Change From Baseline in Percent Predicted Total Lung Capacity (TLC)” value (lung function; Cohort 1: 200 mg QD, Cycle 32, Day 1) was 1.0 (—) Percent Predicted TLC and the “Change From Baseline in Percent Predicted Total Lung Capacity (TLC)” value (lung function; Cohort 1: 200 mg QD, Cycle 33, Day 1) was 14.0 (11.3) Percent Predicted TLC. The “Change From Baseline in Percent Predicted Total Lung Capacity (TLC)” value (lung function; Cohort 1: 200 mg QD, Cycle 34, Day 1) was 2.0 (—) Percent Predicted TLC, the “Change From Baseline in Percent Predicted Total Lung Capacity (TLC)” value (lung function; Cohort 1: 200 mg QD, Cycle 35, Day 1) was 10.5 (7.8) Percent Predicted TLC and the “Change From Baseline in Percent Predicted Total Lung Capacity (TLC)” value (lung function; Cohort 1: 200 mg QD, Cycle 36, Day 1) was 6.0 (—) Percent Predicted TLC. The “Change From Baseline in Percent Predicted Total Lung Capacity (TLC)” value (lung function; Cohort 1: 200 mg QD, Cycle 48, Day 1) was −13.0 (—) Percent Predicted TLC, the “Change From Baseline in Percent Predicted Total Lung Capacity (TLC)” value (lung function; Cohort 1: 200 mg QD, Cycle 49, Day 1) was 5.0 (—) Percent Predicted TLC and the “Change From Baseline in Percent Predicted Total Lung Capacity (TLC)” value (lung function; Cohort 1: 200 mg QD, Cycle 51, Day 1) was 15.0 (—) Percent Predicted TLC. The “Change From Baseline in Percent Predicted Total Lung Capacity (TLC)” value (lung function; Cohort 1: 200 mg QD, Cycle 52, Day 1) was 1.0 (—) Percent Predicted TLC, the “Change From Baseline in Percent Predicted Total Lung Capacity (TLC)” value (lung function; Cohort 1: 200 mg QD, Cycle 53, Day 1) was 15.0 (—) Percent Predicted TLC and the “Change From Baseline in Percent Predicted Total Lung Capacity (TLC)” value (lung function; Cohort 1: 200 mg QD, Cycle 54, Day 1) was 4.0 (—) Percent Predicted TLC. The “Change From Baseline in Percent Predicted Total Lung Capacity (TLC)” value (lung function; Cohort 1: 200 mg QD, Cycle 55, Day 1) was 29.0 (—) Percent Predicted TLC, the “Change From Baseline in Percent Predicted Total Lung Capacity (TLC)” value (lung function; Cohort 1: 200 mg QD, Cycle 56, Day 1) was 9.0 (—) Percent Predicted TLC and the “Change From Baseline in Percent Predicted Total Lung Capacity (TLC)” value (lung function; Cohort 1: 200 mg QD, Cycle 57, Day 1) was 18.0 (—) Percent Predicted TLC. The “Change From Baseline in Percent Predicted Total Lung Capacity (TLC)” value (lung function; Cohort 1: 200 mg QD, Cycle 58, Day 1) was 5.0 (—) Percent Predicted TLC, the “Change From Baseline in Percent Predicted Total Lung Capacity (TLC)” value (lung function; Cohort 1: 200 mg QD, Cycle 60, Day 1) was −3.0 (—) Percent Predicted TLC and the “Change From Baseline in Percent Predicted Total Lung Capacity (TLC)” value (lung function; Cohort 1: 200 mg QD, Cycle 61, Day 1) was 5.0 (—) Percent Predicted TLC. For the same molecule, the “Change From Baseline in Percent Predicted Total Lung Capacity (TLC)” value (lung function; Cohort 1: 200 mg QD, Cycle 62, Day 1) was −1.0 (—) Percent Predicted TLC, the “Change From Baseline in Percent Predicted Total Lung Capacity (TLC)” value (lung function; Cohort 1: 200 mg QD, Cycle 63, Day 1) was 12.0 (—) Percent Predicted TLC and the “Change From Baseline in Percent Predicted Total Lung Capacity (TLC)” value (lung function; Cohort 1: 200 mg QD, Cycle 67, Day 1) was 12.0 (—) Percent Predicted TLC. For the same molecule, the “Change From Baseline in Percent Predicted Total Lung Capacity (TLC)” value (lung function; Cohort 1: 200 mg QD, EOT) was 5.2 (27.5) Percent Predicted TLC, the “Change From Baseline in Percent Predicted Total Lung Capacity (TLC)” value (lung function; Cohort 2: 200 mg BID, Cycle 3, Day 1) was 1.9 (8.5) Percent Predicted TLC and the “Change From Baseline in Percent Predicted Total Lung Capacity (TLC)” value (lung function; Cohort 2: 200 mg BID, Cycle 5, Day 1) was −7.2 (10.5) Percent Predicted TLC. For the same molecule, the “Change From Baseline in Percent Predicted Total Lung Capacity (TLC)” value (lung function; Cohort 2: 200 mg BID, Cycle 7, Day 1) was −4.4 (6.3) Percent Predicted TLC, the “Change From Baseline in Percent Predicted Total Lung Capacity (TLC)” value (lung function; Cohort 2: 200 mg BID, Cycle 8, Day 1) was −5.0 (—) Percent Predicted TLC and the “Change From Baseline in Percent Predicted Total Lung Capacity (TLC)” value (lung function; Cohort 2: 200 mg BID, Cycle 9, Day 1) was −6.0 (8.5) Percent Predicted TLC. For the same molecule, the “Change From Baseline in Percent Predicted Total Lung Capacity (TLC)” value (lung function; Cohort 2: 200 mg BID, Cycle 10, Day 1) was −18.5 (6.4) Percent Predicted TLC, the “Change From Baseline in Percent Predicted Total Lung Capacity (TLC)” value (lung function; Cohort 2: 200 mg BID, Cycle 11, Day 1) was −5.2 (11.2) Percent Predicted TLC and the “Change From Baseline in Percent Predicted Total Lung Capacity (TLC)” value (lung function; Cohort 2: 200 mg BID, Cycle 12, Day 1) was 0.0 (—) Percent Predicted TLC. For the same molecule, the “Change From Baseline in Percent Predicted Total Lung Capacity (TLC)” value (lung function; Cohort 2: 200 mg BID, Cycle 13, Day 1) was −10.3 (18.7) Percent Predicted TLC, the “Change From Baseline in Percent Predicted Total Lung Capacity (TLC)” value (lung function; Cohort 2: 200 mg BID, Cycle 14, Day 1) was −7.0 (—) Percent Predicted TLC and the “Change From Baseline in Percent Predicted Total Lung Capacity (TLC)” value (lung function; Cohort 2: 200 mg BID, Cycle 15, Day 1) was −1.0 (5.6) Percent Predicted TLC. The “Change From Baseline in Percent Predicted Total Lung Capacity (TLC)” value (lung function; Cohort 2: 200 mg BID, Cycle 16, Day 1) was −14.0 (12.7) Percent Predicted TLC, the “Change From Baseline in Percent Predicted Total Lung Capacity (TLC)” value (lung function; Cohort 2: 200 mg BID, Cycle 17, Day 1) was −17.0 (11.4) Percent Predicted TLC and the “Change From Baseline in Percent Predicted Total Lung Capacity (TLC)” value (lung function; Cohort 2: 200 mg BID, Cycle 18, Day 1) was −16.0 (8.5) Percent Predicted TLC. The “Change From Baseline in Percent Predicted Total Lung Capacity (TLC)” value (lung function; Cohort 2: 200 mg BID, Cycle 19, Day 1) was −7.7 (10.5) Percent Predicted TLC, the “Change From Baseline in Percent Predicted Total Lung Capacity (TLC)” value (lung function; Cohort 2: 200 mg BID, Cycle 20, Day 1) was −9.5 (16.3) Percent Predicted TLC and the “Change From Baseline in Percent Predicted Total Lung Capacity (TLC)” value (lung function; Cohort 2: 200 mg BID, Cycle 21, Day 1) was −18.0 (—) Percent Predicted TLC. For the same molecule, the “Change From Baseline in Percent Predicted Total Lung Capacity (TLC)” value (lung function; Cohort 2: 200 mg BID, Cycle 22, Day 1) was −18.5 (6.4) Percent Predicted TLC, the “Change From Baseline in Percent Predicted Total Lung Capacity (TLC)” value (lung function; Cohort 2: 200 mg BID, Cycle 23, Day 1) was −21.0 (19.8) Percent Predicted TLC and the “Change From Baseline in Percent Predicted Total Lung Capacity (TLC)” value (lung function; Cohort 2: 200 mg BID, Cycle 24, Day 1) was −15.0 (—) Percent Predicted TLC. The “Change From Baseline in Percent Predicted Total Lung Capacity (TLC)” value (lung function; Cohort 2: 200 mg BID, Cycle 25, Day 1) was −19.5 (13.4) Percent Predicted TLC, the “Change From Baseline in Percent Predicted Total Lung Capacity (TLC)” value (lung function; Cohort 2: 200 mg BID, Cycle 27, Day 1) was −24.0 (12.7) Percent Predicted TLC and the “Change From Baseline in Percent Predicted Total Lung Capacity (TLC)” value (lung function; Cohort 2: 200 mg BID, Cycle 29, Day 1) was −27.5 (21.9) Percent Predicted TLC. The “Change From Baseline in Percent Predicted Total Lung Capacity (TLC)” value (lung function; Cohort 2: 200 mg BID, Cycle 31, Day 1) was −36.0 (—) Percent Predicted TLC, the “Change From Baseline in Percent Predicted Total Lung Capacity (TLC)” value (lung function; Cohort 2: 200 mg BID, Cycle 33, Day 1) was −39.0 (—) Percent Predicted TLC and the “Change From Baseline in Percent Predicted Total Lung Capacity (TLC)” value (lung function; Cohort 2: 200 mg BID, Cycle 35, Day 1) was −23.5 (16.3) Percent Predicted TLC. For the same molecule, the “Change From Baseline in Percent Predicted Total Lung Capacity (TLC)” value (lung function; Cohort 2: 200 mg BID, EOT) was −2.4 (15.0) Percent Predicted TLC, the “Change From Baseline in Percent Predicted Total Lung Capacity (TLC)” value (lung function; Cohort 3: 400 mg QD, Cycle 2, Day 1) was −9.0 (13.4) Percent Predicted TLC and the “Change From Baseline in Percent Predicted Total Lung Capacity (TLC)” value (lung function; Cohort 3: 400 mg QD, Cycle 3, Day 1) was −0.6 (14.8) Percent Predicted TLC. For the same molecule, the “Change From Baseline in Percent Predicted Total Lung Capacity (TLC)” value (lung function; Cohort 3: 400 mg QD, Cycle 4, Day 1) was 3.3 (14.0) Percent Predicted TLC.

From patent US20260027116A1, “Methods of Treating Chronic Graft-Versus-Host Disease Following Allogeneic Hematopoietic Stem Cell Transplantation” (Kadmon Corporation, LLC, priority 2022, published 2026)
